Data from ChEMBL document CHEMBL1158661, “Celenamide E, a Tripeptide Alkaloid from the Patagonian Sponge Cliona chilensis” (J Nat Prod, 1998).
The source made the active and inactive calls.

Experiments:
Type in all cases: functional, organism-based
Micrococcus luteus = assay: Antibiotic activity against Micrococcus luteus at 50 ug/disk
Bacillus subtilis = assay: Antibiotic activity against Bacillus subtilis at 50 ug/disk
Enterococcus faecalis = assay: Antibiotic activity against Enterococcus faecalis at 50 ug/disk
Staphylococcus aureus = assay: Antibiotic activity against Staphylococcus aureus at 50 ug/disk

Measured: Activity

N/C(=C\c1cc(O)c(O)c(O)c1)C(=O)N[C@@H](Cc1c[nH]c2cc(Br)ccc12)C(=O)N/C=C/c1ccc(O)c(O)c1
active: all assays above
